In series [1] the target is T1, Muscarinic acetylcholine receptor M1 (Homo sapiens) (UniProt P11229).
T1 sequence (whole entry): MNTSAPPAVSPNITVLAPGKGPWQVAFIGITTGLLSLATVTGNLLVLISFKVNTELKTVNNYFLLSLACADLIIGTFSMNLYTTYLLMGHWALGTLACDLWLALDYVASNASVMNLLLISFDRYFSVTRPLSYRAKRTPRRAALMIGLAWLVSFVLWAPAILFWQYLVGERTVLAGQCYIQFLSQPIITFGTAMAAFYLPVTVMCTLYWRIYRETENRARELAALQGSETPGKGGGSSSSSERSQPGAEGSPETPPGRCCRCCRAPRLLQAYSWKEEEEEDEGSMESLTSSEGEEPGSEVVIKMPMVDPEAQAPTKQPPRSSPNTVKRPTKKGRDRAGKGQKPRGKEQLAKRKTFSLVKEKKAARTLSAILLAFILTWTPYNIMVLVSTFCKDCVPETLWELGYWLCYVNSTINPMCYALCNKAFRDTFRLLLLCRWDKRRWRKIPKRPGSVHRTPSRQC
Briefly: (§1) Antagonist activity at human SP/Myc epitope-tagged muscarinic M1 receptor expressed in HEK293T cells assessed as inhibition of carbachol-induced RLuc8-fused Galphaq activation preincubated for 15 mins followed by carbachol induction measured after 2 mins by BRET assay. The class given is cell-based. As to conditions: HEK-293T.

Series [2] has as its target T2, Muscarinic acetylcholine receptor M1 (Homo sapiens, UniProt P11229).
T2 sequence (P11229 whole entry): T1 sequence (whole entry)
The description is as §1. It counts as cell-based, HEK-293T.

For series [3], the target named is T3, Muscarinic acetylcholine receptor M4 (Homo sapiens) (UniProt P08173).
T3 sequence (whole entry): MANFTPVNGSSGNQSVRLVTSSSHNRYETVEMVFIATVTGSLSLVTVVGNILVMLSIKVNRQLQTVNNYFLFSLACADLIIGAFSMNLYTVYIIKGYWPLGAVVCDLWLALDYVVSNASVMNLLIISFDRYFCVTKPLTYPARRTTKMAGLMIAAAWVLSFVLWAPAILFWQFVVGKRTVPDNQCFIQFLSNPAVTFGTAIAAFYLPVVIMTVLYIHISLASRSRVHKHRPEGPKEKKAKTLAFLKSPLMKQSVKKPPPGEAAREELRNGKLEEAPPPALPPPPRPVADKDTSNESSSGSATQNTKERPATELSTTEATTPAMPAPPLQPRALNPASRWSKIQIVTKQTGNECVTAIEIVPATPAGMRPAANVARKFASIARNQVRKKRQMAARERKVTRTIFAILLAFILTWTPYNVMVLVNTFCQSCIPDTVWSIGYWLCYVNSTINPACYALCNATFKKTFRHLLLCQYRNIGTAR
Briefly: (§2) Antagonist activity at human SP/Myc epitope-tagged muscarinic M4 receptor expressed in HEK293T cells assessed as inhibition of carbachol-induced RLuc8-fused Galphaq activation preincubated for 15 mins followed by carbachol induction measured after 2 mins by BRET assay. As to conditions: HEK-293T. The class given is cell-based. For orientation: BRET reads energy transfer from a luciferase to a nearby fluorophore.

Series [4] has as its target T4, Muscarinic acetylcholine receptor M4 (Homo sapiens, UniProt P08173).
T4 sequence (P08173 whole entry): T3 sequence (whole entry)
Described as §2. The class given is cell-based, HEK-293T.

Series [5] can be described thus: Ratio of AUC in CD1 mouse brain to AUC in CD1 mouse plasma at 3 mg/kg, sc. As to conditions: read-out: Ratio AUC. The class given is ADME, organism-based.
A short description of series [6]: Half life in CD1 mouse brain at 3 mg/kg, sc by UPLC-MS analysis. It counts as ADME, organism-based.
The subject of series [7] is Plasma. As to the kind of experiment: fAUClast in CD1 mouse plasma at 3 mg/kg, sc by UPLC-MS analysis. The class given is ADME, organism-based. As to conditions: in vivo.
A short description of series [8]: Cmax in CD1 mouse brain at 3 mg/kg, sc after 0.25 hrs by UPLC-MS analysis. The arrangement: dose 3 mg/kg, route subcutaneous. The class given is ADME, organism-based.
Series [9] can be described thus: Tmax in CD1 mouse plasma at 3 mg/kg, sc by UPLC-MS analysis. The class given is ADME, organism-based.
Series [10] is described as follows: Cmax in CD1 mouse plasma at 3 mg/kg, sc after 0.25 hrs by UPLC-MS analysis. The class given is ADME, organism-based. The arrangement: dose 3 mg/kg, route subcutaneous.
Series [11] in a line: Half life in CD1 mouse plasma at 3 mg/kg, sc by UPLC-MS analysis. It counts as ADME, organism-based.
Series [12] is described as follows: Ratio of fAUC in CD1 mouse brain to fAUC in CD1 mouse plasma at 3 mg/kg, sc. The class given is ADME, organism-based. As to conditions: read-out: K(p,uu,brain).
The nature of series [13]: AUClast in CD1 mouse brain at 3 mg/kg, sc by UPLC-MS analysis. The class given is ADME, organism-based. Details: dose 3 mg/kg, time 0 - last, route subcutaneous.
Series [14] in a line: Tmax in CD1 mouse brain at 3 mg/kg, sc by UPLC-MS analysis. The class given is ADME, organism-based.
Series [15] can be described thus: AUClast in CD1 mouse plasma at 3 mg/kg, sc by UPLC-MS analysis. The class given is ADME, organism-based. The arrangement: dose 3 mg/kg, route subcutaneous, time 0 - last.

Molecules are shown by their SMILES.

For orientation: IC50 means the concentration that inhibits the measured activity by half. With `O=C1CCc2ccccc2N1CCCN1CCC(Cc2ccccc2)CC1`, the values for the Imax in [1] and in [3] were 44% and 66%, respectively. For the same compound, the results for the IC50 in series [2] and in series [4] were 2.63 µM and 8.51 µM, respectively.

As a reminder, the half-life is how long it takes for the measured level to halve. Low values mean fast loss, high ones slow loss. One may read the Cmax as the highest concentration seen after dosing. In general, Tmax refers to the time at which the peak concentration occurs. What is called AUC(0-t) is exposure summed from dosing to a finite time, without extrapolation to infinity. Low values mean low exposure, high ones high exposure. Consider `O=C1CCc2ccccc2N1CCCN1CCN(c2ccccc2)CC1`, for which, in [5], the Kp is 4.35. The results for the half-life in series [6] and in series [11] were 55.8 min and 46.2 min, respectively. In [7], this compound came in with a fAUClast of 50.5 ng·h/mL. In addition, the Cmax in series [8] was 2050 ng/g; in series [10] it was 481 ng/mL. Moreover, the Tmax in series [9] and in [14] was 15 min each time. Besides, the Kp uu in series [12] was determined as 4.05. In addition, the area under the curve AUC(0-t) is 2380 ng·h/mL in [13] and 518 ng·h/mL in series [15].

For the origin of these results see ChEMBL document CHEMBL4043296 (J Med Chem, 2018).
